Assays:
[1] = biological target: pEGFR (Tyr1068) in PC-9 cells (Ex19Del) (Homo sapiens (Human), UniProt P00533, DEL746-750); assay: PC-9 pEGFR AlphaLISA assay; assay type: cell-based; settings: 4 hours incubation, p-EGFR (Tyr1068) AlphaLISA, read-out: Ext pEGFR_PC-9 Ex19Del IC50
How it was run: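 Phospho-EGFR (Tyr1068) was quantified by AlphaLISA SureFire Ultra in lysates of PC-9 cells exposed for 4 h to compound (4-fold, 10-point dilutions).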

EGFR L858R = EGFR L858R (Homo sapiens (Human), UniProt P00533, L858R); assay: Biochemical EGFR inhibition assay, EGFR L858R; settings: Caliper mobility shift; 1.0 mM ATP or ATP Km; read-out: Enz EGFR_L858R IC50
Sequence of EGFR L858R (P00533 25-1210 L858R): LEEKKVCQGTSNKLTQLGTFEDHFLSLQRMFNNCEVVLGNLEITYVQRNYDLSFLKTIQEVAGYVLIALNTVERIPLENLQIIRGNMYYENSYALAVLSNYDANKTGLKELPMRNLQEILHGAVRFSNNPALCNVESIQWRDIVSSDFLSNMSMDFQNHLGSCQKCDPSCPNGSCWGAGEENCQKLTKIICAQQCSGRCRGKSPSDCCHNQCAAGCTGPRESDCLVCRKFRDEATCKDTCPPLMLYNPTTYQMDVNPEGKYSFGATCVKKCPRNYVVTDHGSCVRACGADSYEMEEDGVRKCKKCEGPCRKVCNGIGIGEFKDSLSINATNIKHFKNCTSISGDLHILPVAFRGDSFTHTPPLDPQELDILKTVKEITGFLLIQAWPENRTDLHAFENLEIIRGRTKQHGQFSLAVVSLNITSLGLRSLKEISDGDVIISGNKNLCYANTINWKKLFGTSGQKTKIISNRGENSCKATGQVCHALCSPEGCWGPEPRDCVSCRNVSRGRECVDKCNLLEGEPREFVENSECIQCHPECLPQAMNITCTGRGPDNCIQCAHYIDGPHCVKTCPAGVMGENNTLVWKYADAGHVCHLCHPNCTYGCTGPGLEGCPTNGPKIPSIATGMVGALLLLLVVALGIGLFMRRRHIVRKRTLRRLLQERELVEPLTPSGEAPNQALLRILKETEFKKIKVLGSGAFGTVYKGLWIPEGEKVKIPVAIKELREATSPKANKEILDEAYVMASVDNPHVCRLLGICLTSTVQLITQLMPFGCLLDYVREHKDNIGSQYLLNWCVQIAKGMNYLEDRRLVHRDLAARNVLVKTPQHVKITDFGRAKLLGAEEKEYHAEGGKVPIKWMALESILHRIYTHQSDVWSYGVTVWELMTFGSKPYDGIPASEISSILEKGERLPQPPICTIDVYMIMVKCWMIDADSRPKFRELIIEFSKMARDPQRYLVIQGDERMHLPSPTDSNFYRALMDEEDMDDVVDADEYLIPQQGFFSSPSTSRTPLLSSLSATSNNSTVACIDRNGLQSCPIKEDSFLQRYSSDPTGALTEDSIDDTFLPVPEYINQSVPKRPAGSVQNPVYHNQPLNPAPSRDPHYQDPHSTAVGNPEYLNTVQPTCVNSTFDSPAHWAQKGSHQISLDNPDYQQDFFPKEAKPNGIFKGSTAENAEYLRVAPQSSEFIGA

EGFR (d746-750) = EGFR (d746-750) (Homo sapiens (Human), UniProt P00533, DEL746-750); assay: Biochemical EGFR inhibition assay, EGFR (d746-750); settings: Caliper mobility shift; 1.0 mM ATP or ATP Km; read-out: Enz EGFR_Exon19-del746-750 IC50
Sequence of EGFR (d746-750) (P00533 other isoform, or with tags, fused parts or gaps del 1-694/del 746-750 limits assumed): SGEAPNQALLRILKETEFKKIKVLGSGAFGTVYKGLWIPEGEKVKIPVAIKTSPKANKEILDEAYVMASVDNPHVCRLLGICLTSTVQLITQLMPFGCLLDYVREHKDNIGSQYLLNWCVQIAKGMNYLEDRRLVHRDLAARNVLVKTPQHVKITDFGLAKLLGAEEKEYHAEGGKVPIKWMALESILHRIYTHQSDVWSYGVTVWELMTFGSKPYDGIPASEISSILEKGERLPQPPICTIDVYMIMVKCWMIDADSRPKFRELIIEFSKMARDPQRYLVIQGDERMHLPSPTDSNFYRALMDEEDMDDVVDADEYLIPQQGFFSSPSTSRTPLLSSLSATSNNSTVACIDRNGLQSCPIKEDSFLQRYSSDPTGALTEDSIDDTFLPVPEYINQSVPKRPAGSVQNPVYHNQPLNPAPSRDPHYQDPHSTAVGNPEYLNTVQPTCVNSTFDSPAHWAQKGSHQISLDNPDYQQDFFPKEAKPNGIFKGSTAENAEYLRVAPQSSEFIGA

Sequence of pEGFR (Tyr1068) in PC-9 cells (Ex19Del) (P00533 other isoform, or with tags, fused parts or gaps del 746-750): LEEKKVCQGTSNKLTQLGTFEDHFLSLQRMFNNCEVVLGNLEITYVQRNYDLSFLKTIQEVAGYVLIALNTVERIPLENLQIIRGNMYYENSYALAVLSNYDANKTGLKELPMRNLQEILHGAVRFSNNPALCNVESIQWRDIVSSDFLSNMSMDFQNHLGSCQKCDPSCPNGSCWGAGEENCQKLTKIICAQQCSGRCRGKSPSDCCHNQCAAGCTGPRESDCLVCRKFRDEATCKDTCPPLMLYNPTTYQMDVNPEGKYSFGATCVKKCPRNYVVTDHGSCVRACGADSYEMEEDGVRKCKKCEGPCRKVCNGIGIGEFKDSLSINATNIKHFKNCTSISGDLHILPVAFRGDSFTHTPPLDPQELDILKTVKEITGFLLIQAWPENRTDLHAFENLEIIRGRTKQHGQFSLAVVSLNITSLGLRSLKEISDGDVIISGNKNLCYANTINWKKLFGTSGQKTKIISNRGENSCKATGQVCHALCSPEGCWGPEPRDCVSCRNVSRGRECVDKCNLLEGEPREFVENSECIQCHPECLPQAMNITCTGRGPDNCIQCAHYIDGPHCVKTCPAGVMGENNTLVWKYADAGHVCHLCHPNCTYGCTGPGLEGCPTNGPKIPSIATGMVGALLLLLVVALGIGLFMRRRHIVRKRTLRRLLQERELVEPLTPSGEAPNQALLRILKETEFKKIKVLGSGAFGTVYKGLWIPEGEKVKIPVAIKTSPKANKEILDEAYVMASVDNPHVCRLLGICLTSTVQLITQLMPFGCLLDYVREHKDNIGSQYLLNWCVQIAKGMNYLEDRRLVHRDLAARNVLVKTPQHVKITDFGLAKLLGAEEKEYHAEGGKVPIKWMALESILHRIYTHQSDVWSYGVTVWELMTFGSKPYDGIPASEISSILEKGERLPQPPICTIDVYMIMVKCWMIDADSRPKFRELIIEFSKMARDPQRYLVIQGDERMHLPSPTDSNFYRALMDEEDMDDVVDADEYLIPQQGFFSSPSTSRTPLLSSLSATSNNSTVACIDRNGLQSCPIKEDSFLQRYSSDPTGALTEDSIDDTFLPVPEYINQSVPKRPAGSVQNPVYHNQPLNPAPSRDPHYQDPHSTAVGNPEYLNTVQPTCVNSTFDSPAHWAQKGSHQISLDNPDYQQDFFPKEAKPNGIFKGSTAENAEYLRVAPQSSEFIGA

Row | IC50 [1] | IC50 (EGFR L858R) | IC50 (EGFR (d746-750)) | SMILES
1 | 0.8 nM | 1 nM | 0.6 nM | COc1cc2ncnc(-c3cn(CC4CC4)nc3-c3ccccc3)c2nc1NC(=O)[C@]12C[C@H]1CN(C)C2 (single isomer, unassigned) [Example 409, (1S,5S)—N-(4-(1-(cyclopropylmethyl)-3-phenyl-1H-pyrazol-4-yl)-7-methoxypyrido[3,2-d]pyrimidin-6-yl)-3-methyl-3-azabicyclo[3.1.0]hexane-1-carboxamide or (1R,5R)—N-(4-(1-(cyclopropylmethyl)-3-phenyl-1H-pyrazol-4-yl)-7-methoxypyrido[3,2-d]pyrimidin-6-yl)-3-methyl-3-azabicyclo[3.1.0]hexane-1-carboxamide]
2 | 1.3 nM | 2.6 nM | 1.4 nM | CCn1cc(-c2ncnc3cc(OC)c(NC(=O)[C@@]45C[C@@H]4CN(C)C5)nc23)c(-c2ccc(F)cc2)n1 (single isomer, unassigned) [Example 398, (1S,5S)—N-(4-(1-ethyl-3-(4-fluorophenyl)-1H-pyrazol-4-yl)-7-methoxypyrido[3,2-d]pyrimidin-6-yl)-3-methyl-3-azabicyclo[3.1.0]hexane-1-carboxamide or (1R,5R)—N-(4-(1-ethyl-3-(4-fluorophenyl)-1H-pyrazol-4-yl)-7-methoxypyrido[3,2-d]pyrimidin-6-yl)-3-methyl-3-azabicyclo[3.1.0]hexane-1-carboxamide]
3 | 1.2 nM | 1.6 nM | 1 nM | CCOc1cc2ncnc(-c3cn(C)nc3-c3ccccc3)c2nc1N1CC2(COC2)C1 [Example 175, 6-(7-ethoxy-4-(1-methyl-3-phenyl-1H-pyrazol-4-yl)pyrido[3,2-d]pyrimidin-6-yl)-2-oxa-6-azaspiro[3.3]heptane]
4 | 0.4 nM | 1.1 nM | 0.7 nM | CCn1cc(-c2ncnc3cc(OC)c(NC(=O)c4cnn(CCN(C)C)c4)nc23)c(-c2ccccc2)n1 [Example 319, 1-(2-(dimethylamino)ethyl)-N-(4-(1-ethyl-3-phenyl-1H-pyrazol-4-yl)-7-methoxypyrido[3,2-d]pyrimidin-6-yl)-1H-pyrazole-4-carboxamide]
5 | 1.1 nM | 1.4 nM | 0.7 nM | CCOc1cc2ncnc(-c3cn(C)nc3-c3ccccc3)c2cc1NC(=O)c1cccnc1 [Example 296, N-(7-ethoxy-4-(1-methyl-3-phenyl-1H-pyrazol-4-yl)quinazolin-6-yl)nicotinamide]
6 | 25.9 nM | 2.7 nM | 2.1 nM | Cc1n[nH]c(-c2ccccc2)c1-c1ncnc2cc(-c3cnn(C)c3)ccc12 [Example 479, 7-(1-methyl-1H-pyrazol-4-yl)-4-(3-methyl-5-phenyl-1H-pyrazol-4-yl)quinazoline]
7 | 0.6 nM | 0.9 nM | 0.6 nM | CCn1ccc(C(=O)Nc2cc3c(-c4cn(C)nc4-c4ccccc4)ncnc3cc2OC)n1 [Example 202, 1-ethyl-N-(7-methoxy-4-(1-methyl-3-phenyl-1H-pyrazol-4-yl)quinazolin-6-yl)-1H-pyrazole-3-carboxamide]
8 | 9.6 nM | 145 nM | 3.2 nM | COc1cc2ncnc(-c3cn(C)nc3-c3c(F)cccc3F)c2cc1NC(=O)[C@@]12C[C@@H]1CN(C)C2 [Example 292, (1S,5S)—N-(4-(3-(2,6-difluorophenyl)-1-methyl-1H-pyrazol-4-yl)-7-methoxyquinazolin-6-yl)-3-methyl-3-azabicyclo[3.1.0]hexane-1-carboxamide]
9 | 0.3 nM | 0.6 nM | 0.4 nM | COc1cc2ncnc(-c3cn(CCO)nc3-c3ccccc3)c2cc1NC(=O)c1ccccc1F [Example 264, 2-fluoro-N-(4-(1-(2-hydroxyethyl)-3-phenyl-1H-pyrazol-4-yl)-7-methoxyquinazolin-6-yl)benzamide]
10 | 5.5 nM | 3.2 nM | 1.6 nM | COc1cc2ncnc(-c3cn(C)nc3-c3ccccc3)c2cc1O[C@@H]1CN(C)C[C@H]1F [Example 7, 6-(((3R,4R)-4-fluoro-1-methylpyrrolidin-3-yl)oxy)-7-methoxy-4-(1-methyl-3-phenyl-1H-pyrazol-4-yl)quinazoline]
11 | 0.9 nM | 1 nM | 0.5 nM | COc1cc2ncnc(-c3cn(C)nc3-c3ccccc3)c2nc1-c1ccc2c(c1)CN(C)C2=O [Example 153, 5-(7-methoxy-4-(1-methyl-3-phenyl-1H-pyrazol-4-yl)pyrido[3,2-d]pyrimidin-6-yl)-2-methylisoindolin-1-one]
12 | 4 nM | 3.2 nM | 2.3 nM | COc1cc2ncnc(-c3cn(C)nc3-c3ccccc3)c2cc1NC(=O)N1CCN(C)[C@@H]2C[C@@H]21 (stereo in doubt) [Example 186, N-[7-methoxy-4-(1-methyl-3-phenyl-1H-pyrazol-4-yl)quinazolin-6-yl]-5-methyl-2,5-diazabicyclo[4.1.0]heptane-2-carboxamide]
13 | 4.5 nM | 4.3 nM | 2.7 nM | [2H]C([2H])([2H])N1CCN(C(=O)Nc2cc3c(-c4cn(C)nc4-c4ccccc4)ncnc3cc2OC)[C@@H](C)C1 [Example 181, (S)—N-(7-methoxy-4-(1-methyl-3-phenyl-1H-pyrazol-4-yl)quinazolin-6-yl)-2-methyl-4-(methyl-d3) piperazine-1-carboxamide]
14 | 0.9 nM | 1.3 nM | 0.9 nM | COc1cc2ncnc(-c3cn(CC(F)F)nc3-c3ccccc3)c2cc1NC(=O)C(F)F [Example 269, N-(4-(1-(2,2-difluoroethyl)-3-phenyl-1H-pyrazol-4-yl)-7-methoxyquinazolin-6-yl)-2,2-difluoroacetamide]
15 | 1.4 nM | 2.1 nM | 1.4 nM | COc1cc2ncnc(-c3cn(CC(F)F)nc3-c3ccccc3)c2cc1NC(=O)c1cnn(C(C)C)c1 [Example 270, N-(4-(1-(2,2-difluoroethyl)-3-phenyl-1H-pyrazol-4-yl)-7-methoxyquinazolin-6-yl)-1-isopropyl-1H-pyrazole-4-carboxamide]
16 | 0.9 nM | 1.2 nM | 0.5 nM | COc1cc2ncnc(-c3cn(CC(F)F)nc3-c3ccccc3)c2nc1OC [Example 20, 4-(1-(2,2-difluoroethyl)-3-phenyl-1H-pyrazol-4-yl)-6,7-dimethoxypyrido[3,2-d]pyrimidine]
17 | 1.9 nM | 1.4 nM | 0.8 nM | COc1cc2ncnc(-c3cn(C)nc3-c3ccccc3)c2nc1O[C@H](C)c1cn(C)nn1 [Example 43, (R)-7-methoxy-6-(1-(1-methyl-1H-1,2,3-triazol-4-yl)ethoxy)-4-(1-methyl-3-phenyl-1H-pyrazol-4-yl)pyrido[3,2-d]pyrimidine]
18 | 3.6 nM | 4.4 nM | 1.2 nM | [2H]C([2H])([2H])n1cc(-c2ncnc3cc(OC)c(NC(=O)C45CC(N(C)C)(C4)C5)nc23)c(-c2ccccc2)n1 [Example 494]
19 | 495 nM | 17 nM | 33 nM | CCC(=O)Nc1cc2c(-c3cnn(C4COC4)c3-c3ccccc3)ncnc2cc1OC [Example 499]

Row | SMILES | IC50 [1] | IC50 (EGFR L858R) | IC50 (EGFR (d746-750))
20 | COc1cc2ncnc(-c3cn(C)nc3-c3ccccc3)c2cc1OC(=O)N1CCN(C)[C@H](C)[C@@H]1C [Example 98, 7-methoxy-4-(1-methyl-3-phenyl-1H-pyrazol-4-yl)quinazolin-6-yl (2S,3R)-2,3,4-trimethylpiperazine-1-carboxylate] | 9.3 nM | 6.8 nM | 3.4 nM
